Assay results from patent US20150344466A1 (SUMITOMO CHEMICAL COMPANY, LIMITED, priority 2013, published 2015).

How the values were obtained:
Type in all cases: in vivo
Culex pipiens pallens = assay: Knockdown spray test on adult Culex pipiens pallens (Test Example 4); conditions: topical, 0.25 h, active ingredient 0.1% w/v, 0.5 ml sprayed, within 15 minutes, read-out: knockdown rate of the test insects within 15 minutes
Procedure: Ten adult Culex pipiens pallens were released in a polyethylene cup (bottom diameter: 10.6 cm), and the cup was covered with a 16-mesh nylon gauze. The polyethylene cup was placed on the bottom of a test chamber (bottom: 46 cm×46 cm, height: 70 cm). From a height of 30 cm above the upper surface of the polyethylene cup, 0.5 ml of the test drug solution was sprayed using a spray gun (a spraying pressure of 0.4 kg/cm^2). Immediately after spraying, the cup was taken out from the test chamber, and after 2 minutes, 5 minutes and 15 minutes, the number of knocked-down insects was counted to obtain a knockdown rate. The knockdown rate was calculated by the following equation.
(§1) Knockdown Rate (%)=(Number of Knocked-down Insects/Number of Tested Insects)×100

Blattella germanica = assay: Knockdown spray test on Blattella germanica, 0.1% w/v oil formulation (Test Example 2); conditions: topical, 0.25 h, active ingredient 0.1% w/v, 1.5 ml sprayed, within 15 minutes, read-out: knockdown rate of the test insects within 15 minutes
Procedure: Ten Blattella germanica (5 males and 5 females) were released in a test container (8.75 cm in diameter, 7.5 cm in height, and the bottom made of 16 mesh metallic wire) with the inner wall on which butter was applied, and the container was placed on the bottom of a test chamber (bottom: 46 cm×46 cm, height: 70 cm). From a height of 60 cm above the upper surface of the container, 1.5 ml of the test drug solution was sprayed using a spray gun (a spraying pressure of 0.42 kg/cm^2). Thirty seconds after spraying, the container was taken out from the test chamber, and after 2 minutes, 5 minutes and 15 minutes, the number of knocked-down insects was counted to obtain a knockdown rate. The knockdown rate was calculated by the following equation.
as §1

Musca domestica = assay: Filter paper/sucrose bait death rate test on Musca domestica (Test Example 5); conditions: female imagoes of Musca domestica, 0.7 ml on filter paper, after 24 hours
Procedure: A filter paper having a diameter of 5.5 cm was spread on the bottom of a polyethylene cup having the same diameter and 0.7 ml of the test drug solution was added dropwise onto the filter paper, and 30 mg of sucrose was uniformly placed as bait.
Into the polyethylene cup, 10 female imagoes of Musca domestica were released, and the cup was sealed with a lid. After 24 hours, the life and death of Musca domestica was examined, and the death rate was calculated. The death rate was calculated by the following equation.
Death rate (%)=(Number of dead insects/Number of tested insects)×100

| SMILES | pest or weed control at 0.1 % strength (Culex pipiens pallens) [%] | pest or weed control at 0.1 % strength (Blattella germanica) [%] | pest or weed control at 500 ppm (Musca domestica) [%] |
| --- | --- | --- | --- |
| O=C(NCC1CCOC1)c1cc(COCc2ccccc2Cl)on1 (stereo not drawn) [(66), N-(tetrahydrofuran-3-ylmethyl)-5-(2-chlorobenzyloxymethyl)isoxazole-3-carboxamide] | ≥ 80 | ≥ 80 | ≥ 90 |
| O=C(NCC1CCOCC1)c1cc(COCc2ccccc2Cl)on1 [(67), N-(tetrahydropyran-4-ylmethyl)-5-(2-chlorobenzyloxymethyl)isoxazole-3-carboxamide] | ≥ 80 | ≥ 80 | ≥ 90 |
| O=C(NCC1CCOC1)c1cc(COCc2cccc(Cl)c2)on1 (stereo not drawn) [(68)] | ≥ 80 | ≥ 80 | ≥ 90 |
| Cc1cccc(COCc2cc(C(=O)NCC3CCOC3)no2)c1 (stereo not drawn) [(82), N-(tetrahydrofuran-3-ylmethyl)-5-(3-methylbenzyloxymethyl)isoxazole-3-carboxamide] | ≥ 80 | ≥ 80 | ≥ 90 |
| COc1cccc(COCc2cc(C(=O)NCC3CCOC3)no2)c1 (stereo not drawn) [(84), N-(tetrahydrofuran-3-ylmethyl)-5-(3-methoxybenzyloxymethyl) isoxazole-3-carboxamide] | ≥ 80 | ≥ 80 | ≥ 90 |
| Cc1c(C(=O)NCC2CCOC2)noc1COCc1cccc(F)c1 (stereo not drawn) [(217), N-(tetrahydrofuran-3-ylmethyl)-5-(3-fluorobenzyloxymethyl)-4-methylisoxazole-3-carboxamide] | ≥ 80 | ≥ 80 | – |
| Cc1c(C(=O)NCC2CCOC2)noc1CCCc1ccccc1 (stereo not drawn) [(221), N-(tetrahydrofuran-3-ylmethyl)-4-methyl-5-(3-phenylpropyl)isoxazole-3-carboxamide] | ≥ 80 | ≥ 80 | – |
| Cc1ccccc1COCc1cc(C(=O)NCC2CCOC2)no1 (stereo not drawn) [(226)] | ≥ 80 | ≥ 80 | – |
| O=C(NCC1CCOC1)c1cc(CCCc2ccc3ccccc3c2)on1 (stereo not drawn) [(228), N-(tetrahydrofuran-3-ylmethyl)-5-[3-(2-naphthyl)propyl]isoxazole-3-carboxamide] | ≥ 80 | ≥ 80 | – |
| O=C(NCC1COCCO1)c1cc(CCCc2ccc3ccccc3c2)on1 (stereo not drawn) [(230), N-(1,4-dioxan-2-ylmethyl)-5-[3-(2-naphthyl)propyl]isoxazole-3-carboxamide] | ≥ 80 | ≥ 80 | – |
| O=C(NCC1CCOC1)c1cc(COc2ccc3c(c2)CCCC3)on1 (stereo not drawn) [(239), N-(tetrahydrofuran-3-ylmethyl)-5-(5,6,7,8-tetrahydronaphthalen-2-yl)oxymethylisoxazole-3-carboxamide] | ≥ 80 | ≥ 80 | – |
| O=C(NCC1CCOC1)c1cc(CSCc2ccc3ccccc3c2)on1 (stereo not drawn) [(253)] | ≥ 80 | ≥ 80 | – |
| O=C(NCC1CCOC1)c1noc(COCc2ccc3ccccc3c2)c1F (stereo not drawn) [(255), N-(tetrahydrofuran-3-ylmethyl)-5-(2-naphthylmethoxymethyl)-4-fluoroisoxazole-3-carboxamide] | ≥ 80 | ≥ 80 | – |
| O=C(NCC1CCOC1)c1cc(COCc2cc3ccccc3cc2F)on1 (stereo not drawn) [(257), N-(tetrahydrofuran-3-ylmethyl)-5-(3-fluoro-2-naphthylmethoxymethyl)isoxazole-3-carboxamide] | ≥ 80 | ≥ 80 | – |
| O=C(NCC1CCOC1)c1cc(COCc2ccc(F)c(Cl)c2)on1 (stereo not drawn) [(261), N-(tetrahydrofuran-3-ylmethyl)-5-(3-chloro-4-fluorobenzyloxymethyl)isoxazole-3-carboxamide] | ≥ 80 | ≥ 80 | – |
| O=C(NCC1CCOC1)c1cc(COCc2ccc(F)c(F)c2)on1 (stereo not drawn) [(263), N-(tetrahydrofuran-3-ylmethyl)-5-(3,4-difluorobenzyloxymethyl)isoxazole-3-carboxamide] | ≥ 80 | ≥ 80 | – |

| SMILES | pest or weed control at 0.1 % strength (Culex pipiens pallens) [%] | pest or weed control at 0.1 % strength (Blattella germanica) [%] | pest or weed control at 500 ppm (Musca domestica) [%] |
| --- | --- | --- | --- |
| O=C(NCC1CCOC1)c1cc(COCc2ccccc2Br)on1 (stereo not drawn) [(265), N-(tetrahydrofuran-3-ylmethyl)-5-(2-bromobenzyloxymethyl)isoxazole-3-carboxamide] | ≥ 80 | ≥ 80 | – |
| Cc1cc(C)cc(COCc2cc(C(=O)NCC3CCOC3)no2)c1 (stereo not drawn) [(271), N-(tetrahydrofuran-3-ylmethyl)-5-(3,5-dimethylbenzyloxymethyl)isoxazole-3-carboxamide] | ≥ 80 | – | ≥ 90 |
| O=C(NCC1CCOC1)c1cc(COCc2c(F)cccc2F)on1 (stereo not drawn) [(275), N-(tetrahydrofuran-3-ylmethyl)-5-(2,6-difluorobenzyloxymethyl)isoxazole-3-carboxamide] | ≥ 80 | – | ≥ 90 |
| O=C(NCC1CCOC1)c1cc(COCc2ccc(Cl)c(F)c2)on1 (stereo not drawn) [(276), N-(tetrahydrofuran-3-ylmethyl)-5-(4-chloro-3-fluorobenzyloxymethyl)isoxazole-3-carboxamide] | ≥ 80 | ≥ 80 | – |
| COc1ccc(COCc2cc(C(=O)NCC3CCOC3)no2)cc1F (stereo not drawn) [(277), N-(tetrahydrofuran-3-ylmethyl)-5-(3-fluoro-4-methoxybenzyloxymethyl)isoxazole-3-carboxamide] | ≥ 80 | ≥ 80 | – |
| O=C(NCC1CCOC1)c1noc(COCc2ccccc2F)c1F (stereo not drawn) [(298), N-(tetrahydrofuran-3-ylmethyl)-5-(2-fluorobenzyloxymethyl)-4-fluoroisoxazole-3-carboxamide] | ≥ 80 | ≥ 80 | – |
| O=C(NCC1CCOC1)c1cc(Cc2cccs2)on1 (stereo not drawn) [(308), N-(tetrahydrofuran-3-ylmethyl)-5-(2-thienylmethyl)isoxazole-3-carboxamide] | ≥ 80 | – | ≥ 90 |
| COc1cccc(Cc2cc(C(=O)NCC3CCOC3)no2)c1 (stereo not drawn) [(312), N-(tetrahydrofuran-3-ylmethyl)-5-(3-methoxybenzyl)isoxazole-3-carboxamide] | ≥ 80 | ≥ 80 | – |
| COc1ccccc1Cc1cc(C(=O)NCC2CCOC2)no1 (stereo not drawn) [(317), N-(tetrahydrofuran-3-ylmethyl)-5-(2-methoxybenzyl)isoxazole-3-carboxamide] | ≥ 80 | ≥ 80 | – |
| O=C(NCC1CCOC1)c1cc(Cc2cccc(-c3ccccc3)c2)on1 (stereo not drawn) [(327)] | ≥ 80 | ≥ 80 | – |
| Cc1cccc(Cc2cc(C(=O)NCC3CCOC3)no2)c1 (stereo not drawn) [(328), N-(tetrahydrofuran-3-ylmethyl)-5-(3-methylbenzyl)isoxazole-3-carboxamide] | ≥ 80 | ≥ 80 | – |
| Cc1ccc(Cc2cc(C(=O)NCC3CCOC3)no2)cc1 (stereo not drawn) [(329), N-(tetrahydrofuran-3-ylmethyl)-5-(4-methylbenzyl)isoxazole-3-carboxamide] | ≥ 80 | ≥ 80 | – |
| CC1(CNC(=O)c2cc(COCc3ccc4ccccc4c3)on2)COC1 [(333), N-(3-methyloxetan-3-ylmethyl)-5-(2-naphthylmethoxymethyl)isoxazole-3-carboxamide] | ≥ 80 | – | ≥ 90 |
| CC1(C)CC(NC(=O)c2cc(COCc3ccccc3)on2)CCO1 (stereo not drawn) [(335), N-(2,2-dimethyltetrahydropyran-4-yl)-5-benzyloxymethylisoxazole-3-carboxamide] | ≥ 80 | – | ≥ 90 |
| O=C(NCC1CCOC1)c1cc(COCc2ccc3sccc3c2)on1 (stereo not drawn) [(336), N-(tetrahydrofuran-3-ylmethyl)-5-[(5-benzothiophenyl)methoxymethyl]isoxazole-3-carboxamide] | ≥ 80 | ≥ 80 | – |
| CCc1c(C(=O)NCC2CCOC2)noc1COCc1ccc2ccccc2c1 (stereo not drawn) [(338), N-(tetrahydrofuran-3-ylmethyl)-5-(2-naphthylmethoxymethyl)-4-ethylisoxazole-3-carboxamide] | ≥ 80 | ≥ 80 | – |
